Measurements from patent US20260027068A1, “METHODS OF ADM[…]-KETAMINE” (Perception Neuroscience, Inc., priority 2022, published 2026).

Experiments:
[1] = tested on: rats; assay: Precipitated withdrawal from morphine; assay type: in vivo
[2] = tested on: healthy subjects
Excerpt: To date, there has been one clinical trial that evaluated the safety of R(−)-ketamine.

[3] = tested on: healthy volunteers; details: up to 1 mg/kg IV or 1.8 mg/kg intramuscular; cited from earlier work
[4] = Oxygen saturation (pulse oximetry, SpO2)
Method: The Investigational Medicinal Product (IMP) R(−)-ketamine hydrochloride in sterile water for intravenous injection was investigated as an […] treatment of TRD. The International Union of Pure and Applied Chemistry (IUPAC) name is of the IMP is (2R)-2-(2-chlorophenyl)-2-(methylamino)cyclohexan-1-one. Subjects received the solution at either 30 mg or 60 mg dose, or a placebo. The IMP or placebo was administered on Day 1 as a single IV infusion via an electronic infusion pump over 40 minutes. The duration of study participation for each subject was up to 29 days including a screening period, a 3-day in-clinic visit, and 2 follow-up visits. 101 subjects were enrolled in approximately 20 study centers in the EU and the US.
Tympanic or temporal temperature, heart rate, blood pressure (SBP/DBP), respiratory rate, and SpO2 were assessed. Blood pressure and pulse measurements will be assessed with a completely automated device while the subject is supine or semi-supine. Manual techniques will be used only if an automated device is not available. Blood pressure and pulse measurements should be preceded by at least 5 minutes of rest for the subject in a quiet setting without distractions (e.g., television, cell phones). An abnormal blood pressure value at screening may be repeated once after 5 minutes of relaxation to determine the subject's eligibility. Blood pressure was recorded using the same arm and position (supine or semi-supine) throughout the study, where possible. Vital signs (to be taken before blood collection for laboratory tests) consisted of 1 pulse and 3 blood pressure measurements (3 consecutive blood pressure readings will be recorded at intervals of at least 1 minute). The average of the 3 blood pressure readings was recorded in the CRF. A pulse oximeter was used to measure peripheral capillary oxygen saturation (SpO2) continuously from pre-dose until 4-hours post-dose. A pulse oximeter was clipped onto the finger or foot of the subject, and light will be sent through the finger or foot and measured on the other side.
In these tables, baseline value is defined as the last non-missing value prior to study drug administration.

SMILES: CN[C@@]1(c2ccccc2Cl)CCCCC1=O.Cl [R(−)-ketamine, (2R)-2-(2-chlorophenyl)-2-(methylamino)cyclohexan-1-one]
- Effect on symptoms of precipitated withdrawal from morphine [1]: significantly ameliorated the symptoms of precipitated withdrawal from morphine
- Safety findings compared with 100 mg or 150 mg doses ([2]; 30 mg and 60 mg doses): fewer transient elevations in mean systemic blood pressure, less sedation, fewer psychological or psychotic and dissociative effects, and fewer episodes of altered consciousness
- Dose level most similar to 15 mg S(+)-ketamine in terms of safety profile ([2]; healthy subjects): 60 mg
- Doses with acceptable safety profiles ([2]; single 40-minute IV infusions, healthy subjects): ≤ 150 mg
- Psychotomimetic and dissociative-like effects compared with S(+)-ketamine [3]: less pronounced psychotomimetic and dissociative-like effects
- Oxygen Saturation, Max ([4]; 30 mg, Day 1, 15 minutes): 100%
- Oxygen Saturation, Mean ([4]; 30 mg, Day 1, 15 minutes): 98.3%
- Oxygen Saturation, Median ([4]; 30 mg, Day 1, 15 minutes): 98.0%
- Oxygen Saturation, Min ([4]; 30 mg, Day 1, 15 minutes): 96%
- Oxygen Saturation, Max ([4]; 30 mg, Day 1, 40 minutes): 99%
- Oxygen Saturation, Mean ([4]; 30 mg, Day 1, 40 minutes): 98.3%
- Oxygen Saturation, Median ([4]; 30 mg, Day 1, 40 minutes): 98.0%
- Oxygen Saturation, Min ([4]; 30 mg, Day 1, 40 minutes): 96%
- Oxygen Saturation, Max ([4]; 30 mg, Day 1, 60 minutes): 100%
- Oxygen Saturation, Mean ([4]; 30 mg, Day 1, 60 minutes): 98.2%
- Oxygen Saturation, Median ([4]; 30 mg, Day 1, 60 minutes): 98.0%
- Oxygen Saturation, Min ([4]; 30 mg, Day 1, 60 minutes): 96%
- Oxygen Saturation, Max ([4]; 30 mg, Day 1, 2 hours): 100%
- Oxygen Saturation, Mean ([4]; 30 mg, Day 1, 2 hours): 98.4%
- Oxygen Saturation, Median ([4]; 30 mg, Day 1, 2 hours): 99.0%
- Oxygen Saturation, Min ([4]; 30 mg, Day 1, 2 hours): 97%
- Oxygen Saturation, Max ([4]; 30 mg, Day 1, 4 hours): 100%
- Oxygen Saturation, Mean ([4]; 30 mg, Day 1, 4 hours): 98.3%
- Oxygen Saturation, Median ([4]; 30 mg, Day 1, 4 hours): 98.0%
- Oxygen Saturation, Min ([4]; 30 mg, Day 1, 4 hours): 96%
- Oxygen Saturation, Change from Baseline, Max ([4]; 30 mg, to Day 1, 15 minutes): 2%
- Oxygen Saturation, Change from Baseline, Mean ([4]; 30 mg, to Day 1, 15 minutes): −0.3%
- Oxygen Saturation, Change from Baseline, Median ([4]; 30 mg, to Day 1, 15 minutes): 0.0%
- Oxygen Saturation, Change from Baseline, Min ([4]; 30 mg, to Day 1, 15 minutes): −3%
- Oxygen Saturation, Change from Baseline, Max ([4]; 30 mg, to Day 1, 40 minutes): 2%
- Oxygen Saturation, Change from Baseline, Mean ([4]; 30 mg, to Day 1, 40 minutes): −0.4%
- Oxygen Saturation, Change from Baseline, Median ([4]; 30 mg, to Day 1, 40 minutes): 0.0%
- Oxygen Saturation, Change from Baseline, Min ([4]; 30 mg, to Day 1, 40 minutes): −2%
- Oxygen Saturation, Change from Baseline, Max ([4]; 30 mg, to Day 1, 60 minutes): 1%
- Oxygen Saturation, Change from Baseline, Mean ([4]; 30 mg, to Day 1, 60 minutes): −0.5%
- Oxygen Saturation, Change from Baseline, Median ([4]; 30 mg, to Day 1, 60 minutes): 0.0%
- Oxygen Saturation, Change from Baseline, Min ([4]; 30 mg, to Day 1, 60 minutes): −3%
- Oxygen Saturation, Change from Baseline, Max ([4]; 30 mg, to Day 1, 2 hours): 3%
- Oxygen Saturation, Change from Baseline, Mean ([4]; 30 mg, to Day 1, 2 hours): −0.2%
- Oxygen Saturation, Change from Baseline, Median ([4]; 30 mg, to Day 1, 2 hours): 0.0%
- Oxygen Saturation, Change from Baseline, Min ([4]; 30 mg, to Day 1, 2 hours): −2%
- Oxygen Saturation, Change from Baseline, Max ([4]; 30 mg, to Day 1, 4 hours): 3%
- Oxygen Saturation, Change from Baseline, Mean ([4]; 30 mg, to Day 1, 4 hours): −0.4%
- Oxygen Saturation, Change from Baseline, Median ([4]; 30 mg, to Day 1, 4 hours): 0.0%
- Oxygen Saturation, Change from Baseline, Min ([4]; 30 mg, to Day 1, 4 hours): −3%
- Oxygen Saturation, Max ([4]; 60 mg, Day 1, 15 minutes): 100%
- Oxygen Saturation, Mean ([4]; 60 mg, Day 1, 15 minutes): 98.2%
- Oxygen Saturation, Median ([4]; 60 mg, Day 1, 15 minutes): 98.0%
- Oxygen Saturation, Min ([4]; 60 mg, Day 1, 15 minutes): 96%
- Oxygen Saturation, Max ([4]; 60 mg, Day 1, 40 minutes): 100%
- Oxygen Saturation, Mean ([4]; 60 mg, Day 1, 40 minutes): 98.1%
- Oxygen Saturation, Median ([4]; 60 mg, Day 1, 40 minutes): 98.0%
- Oxygen Saturation, Min ([4]; 60 mg, Day 1, 40 minutes): 95%
- Oxygen Saturation, Max ([4]; 60 mg, Day 1, 60 minutes): 100%
- Oxygen Saturation, Mean ([4]; 60 mg, Day 1, 60 minutes): 98.1%
- Oxygen Saturation, Median ([4]; 60 mg, Day 1, 60 minutes): 98.0%
- Oxygen Saturation, Min ([4]; 60 mg, Day 1, 60 minutes): 95%
- Oxygen Saturation, Max ([4]; 60 mg, Day 1, 2 hours): 100%
- Oxygen Saturation, Mean ([4]; 60 mg, Day 1, 2 hours): 98.2%
- Oxygen Saturation, Median ([4]; 60 mg, Day 1, 2 hours): 98.0%
- Oxygen Saturation, Min ([4]; 60 mg, Day 1, 2 hours): 97%
- Oxygen Saturation, Max ([4]; 60 mg, Day 1, 4 hours): 100%
- Oxygen Saturation, Mean ([4]; 60 mg, Day 1, 4 hours): 98.3%
- Oxygen Saturation, Median ([4]; 60 mg, Day 1, 4 hours): 99.0%
- Oxygen Saturation, Min ([4]; 60 mg, Day 1, 4 hours): 96%
- Oxygen Saturation, Change from Baseline, Max ([4]; 60 mg, to Day 1, 15 minutes): 4%
- Oxygen Saturation, Change from Baseline, Mean ([4]; 60 mg, to Day 1, 15 minutes): 0.0%
- Oxygen Saturation, Change from Baseline, Median ([4]; 60 mg, to Day 1, 15 minutes): 0.0%
- Oxygen Saturation, Change from Baseline, Min ([4]; 60 mg, to Day 1, 15 minutes): −2%
- Oxygen Saturation, Change from Baseline, Max ([4]; 60 mg, to Day 1, 40 minutes): 2%
- Oxygen Saturation, Change from Baseline, Mean ([4]; 60 mg, to Day 1, 40 minutes): −0.1%
- Oxygen Saturation, Change from Baseline, Median ([4]; 60 mg, to Day 1, 40 minutes): 0.0%
- Oxygen Saturation, Change from Baseline, Min ([4]; 60 mg, to Day 1, 40 minutes): −2%
- Oxygen Saturation, Change from Baseline, Max ([4]; 60 mg, to Day 1, 60 minutes): 3%
- Oxygen Saturation, Change from Baseline, Mean ([4]; 60 mg, to Day 1, 60 minutes): −0.1%
- Oxygen Saturation, Change from Baseline, Median ([4]; 60 mg, to Day 1, 60 minutes): 0.0%
- Oxygen Saturation, Change from Baseline, Min ([4]; 60 mg, to Day 1, 60 minutes): −4%
- Oxygen Saturation, Change from Baseline, Max ([4]; 60 mg, to Day 1, 2 hours): 3%
- Oxygen Saturation, Change from Baseline, Mean ([4]; 60 mg, to Day 1, 2 hours): 0.0%
- Oxygen Saturation, Change from Baseline, Median ([4]; 60 mg, to Day 1, 2 hours): 0.0%
- Oxygen Saturation, Change from Baseline, Min ([4]; 60 mg, to Day 1, 2 hours): −2%
- Oxygen Saturation, Change from Baseline, Max ([4]; 60 mg, to Day 1, 4 hours): 1%
- Oxygen Saturation, Change from Baseline, Mean ([4]; 60 mg, to Day 1, 4 hours): 0.2%
- Oxygen Saturation, Change from Baseline, Median ([4]; 60 mg, to Day 1, 4 hours): 0.0%
- Oxygen Saturation, Change from Baseline, Min ([4]; 60 mg, to Day 1, 4 hours): −2%
